Experimental data taken from paper PMC10163738, “Switch from a ritonavir to a cobicistat containing antiretroviral regimen and impact on tacrolimus levels in a kidney transplant recipient” (Virology Journal, 2023).
Read-outs that look alike come from different tables or passages of the source. Marks after values point to notes of the source that are not given here.

Key:
[1] = Tacrolimus pharmacokinetic profiles and trough level monitoring before and after switch of booster from ritonavir to cobicistat in an HIV-infected kidney transplant recipient; type: in vivo, human; conditions: for AUC(0-t): read-out: AUC264h; for half-life: read-out: T1/2 (elimination half-life) (converted)
Source text: Due to the high daily pill burden (i.e., 4 tablets mycophenolate mofetil, 10 tablets for the antiretroviral regimen, 7 pills for the treatment of cardiovascular risk factors, and 8 pills for additional indications), and with new combination antiretroviral pills available, a treatment simplification was envisaged. A feasible antiretroviral treatment considering the multi-drug resistant HIV virus was the combination of dolutegravir (INSTI), rilpivirine (NNRTI), maraviroc and the single tablet combination including emtricitabine, tenofovir alafenamide and darunavir boosted with cobicistat (darunavir/c). […] Due to the inducing properties of ritonavir, we predicted that a switch to cobicistat could result in higher tacrolimus concentrations. During three weeks before and three weeks after the switch we closely monitored tacrolimus drug levels (3 full pharmacokinetic profiles before and after changing the booster) to evaluate the effect on tacrolimus exposure (Figs. 1, 2).
Fig. 1 Tacrolimus profiles during ritonavir-boosted and cobicistat-boosted antiretroviral regimens. Three 11 days pharmacokinetic tacrolimus concentrations profiles in blue while on the ritonavir-boosted regimen before the switch and in red while on the cobicistat-boosted regimen after the switch. *For practical reasons (weekend, holidays) tacrolimus trough levels were measured on day 9 at the end of the third pharmacokinetic profile and on day 10 at the end of the sixth pharmacokinetic profile
Fig. 2 Antiretroviral treatment and tacrolimus trough levels before and after therapy switch. Blue bars indicate drugs before switch and blue dots tacrolimus levels before switch. Red bars indicate drugs after switch and red dots indicate tacrolimus trough levels after switch.

[2] = as above; type: in vivo, human; conditions: co-administered with darunavir/ritonavir 800/100 mg once daily, 3rd pharmacokinetic profile, dosing interval 10 days for practical reasons
[3] = parameters: method as in PMID 25708713; conditions: co-administered with ritonavir; cited from earlier work
[4] = renal transplant recipients in absence of strong inhibitors; cited from earlier work
[5] = human, plasma, oral, co-administered with darunavir/cobicistat 800/150 mg once daily, 1st pharmacokinetic profile
[6] = human, plasma, oral, co-administered with darunavir/cobicistat 800/150 mg once daily, 2nd pharmacokinetic profile
[7] = human, plasma, oral, co-administered with darunavir/cobicistat 800/150 mg once daily, 3rd pharmacokinetic profile

## C=CC[C@@H]1/C=C(\C)C[C@H](C)C[C@H](OC)[C@H]2O[C@@](O)(C(=O)C(=O)N3CCCC[C@H]3C(=O)O[C@H](/C(C)=C/[C@@H]3CC[C@@H](O)[C@H](OC)C3)[C@H](C)[C@@H](O)CC1=O)[C@H](C)C[C@@H]2OC [Tacrolimus, tacrolimus]
[1]; co-administered with darunavir/cobicistat 800/150 mg once daily, 1st pharmacokinetic profile
  Tmax: 2 h
[1]; co-administered with darunavir/cobicistat 800/150 mg once daily, 2nd pharmacokinetic profile, tacrolimus once every 11 days
  C0h (pre-dose plasma concentration): 4.1 µg/L
[1]; co-administered with darunavir/cobicistat 800/150 mg once daily, 3rd (sixth overall) pharmacokinetic profile, dosing interval 10 days for practical reasons
  C0h (pre-dose plasma concentration): 4.0^a µg/L
[1]; co-administered with darunavir/ritonavir 800/100 mg once daily, 1st pharmacokinetic profile, tacrolimus once every 11 days
  C0h (pre-dose plasma concentration): 7.3 µg/L
[1]; co-administered with darunavir/ritonavir 800/100 mg once daily, 2nd pharmacokinetic profile, tacrolimus once every 11 days
  C0h (pre-dose plasma concentration): 6.1 µg/L
[1]; darunavir/cobicistat 800/150 mg once daily section, 1st profile, trough at the day of the switch, i.e. last trough on darunavir/ritonavir, immediately before darunavir/cobicistat
  C0h (pre-dose plasma concentration): 6.8^b µg/L
[1]; eleven months post pharmacokinetic booster switch (cobicistat-boosted regimen), dosing interval 11 days
  tacrolimus trough level: 2.1 µg/L
[1]; human, plasma, oral, 0.5 mg, co-administered with darunavir/ritonavir 800/100 mg once daily, 1st pharmacokinetic profile
  Cmax: 15.1 ng/mL
[1]; human, plasma, oral, 0.5 mg, co-administered with darunavir/ritonavir 800/100 mg once daily, 2nd pharmacokinetic profile
  Cmax: 17.7 ng/mL
[1]; human, plasma, oral, 0.5 mg, co-administered with darunavir/ritonavir 800/100 mg once daily, 3rd pharmacokinetic profile
  Cmax: 17.6 ng/mL
[1]; [5]
  Cmax: 11.7 ng/mL
  half-life: 226 h
[1]; human, plasma, oral, co-administered with darunavir/cobicistat 800/150 mg once daily, 1st pharmacokinetic profile, dosing interval 11 days
  AUC(0-t): 1750 ng·h/mL
[1]; [6]
  Cmax: 13.7 ng/mL
  half-life: 175 h
[1]; human, plasma, oral, co-administered with darunavir/cobicistat 800/150 mg once daily, 2nd pharmacokinetic profile, dosing interval 11 days
  AUC(0-t): 1870 ng·h/mL
[1]; human, plasma, oral, co-administered with darunavir/cobicistat 800/150 mg once daily, 2nd pharmacokinetic profile, read-out: Tmax
  Tmax: 8 h
[1]; [7]
  Cmax: 12.6 ng/mL
  half-life: 183 h
[1]; human, plasma, oral, co-administered with darunavir/cobicistat 800/150 mg once daily, 3rd pharmacokinetic profile, read-out: Tmax
  Tmax: 4 h
[1]; human, plasma, oral, co-administered with darunavir/ritonavir 800/100 mg once daily, 1st pharmacokinetic profile, dosing interval 11 days
  AUC(0-t): 2650 ng·h/mL
[1]; human, plasma, oral, co-administered with darunavir/ritonavir 800/100 mg once daily, 1st pharmacokinetic profile
  half-life: 227 h
[1]; human, plasma, oral, co-administered with darunavir/ritonavir 800/100 mg once daily, 1st pharmacokinetic profile, read-out: Tmax
  Tmax: 8 h
[1]; human, plasma, oral, co-administered with darunavir/ritonavir 800/100 mg once daily, 2nd pharmacokinetic profile, dosing interval 11 days
  AUC(0-t): 2380 ng·h/mL
[1]; human, plasma, oral, co-administered with darunavir/ritonavir 800/100 mg once daily, 2nd pharmacokinetic profile
  half-life: 275 h
[1]; human, plasma, oral, co-administered with darunavir/ritonavir 800/100 mg once daily, 2nd pharmacokinetic profile, read-out: Tmax
  Tmax: 4 h
[1]; human, plasma, oral, co-administered with darunavir/ritonavir 800/100 mg once daily, 3rd pharmacokinetic profile
  half-life: 266 h
[1]; human, plasma, oral, co-administered with darunavir/ritonavir 800/100 mg once daily, 3rd pharmacokinetic profile, read-out: Tmax
  Tmax: 4 h
[1]; human, plasma, oral, co-administered with darunavir/cobicistat 800/150 mg once daily, 3rd (sixth overall) pharmacokinetic profile, dosing interval 10 days for practical reasons
  AUC(0-t): 1240 ng·h/mL
[2]
  C0h (pre-dose plasma concentration): 6.2^a µg/L
[2]; human, plasma, oral, read-out: AUC264h
  AUC(0-t): 2350 ng·h/mL
[3]
  increase of tacrolimus elimination half-life: sevenfold
  increase of tacrolimus exposure: 57 fold
[4]
  CL/F: 6.7 L/h
  T1/2: 15.6 h
